The target in experiment [1] is hGYS1 enzyme (recombinant hGYS1/GN1 protein) (Homo sapiens (Human), UniProt P13807). Briefly: GYS1 coupled enzyme assay (PK/LDH). In kind it is biochemical. The conditions noted are these: hGYS1/GN1 50 nM, UDP-Glucose 0.8 mM, G6P 1 mM; geometric mean of at least 2 runs.
The target of experiment [2] is hGYS2 enzyme (recombinant hGYS2/GN1 protein) (Homo sapiens (Human), UniProt P54840). Briefly: GYS2 coupled enzyme assay (PK/LDH). In kind it is biochemical. The conditions noted are these: geometric mean of at least 2 assay runs on separate days, read-out: Avg_IC50. The essentials:
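Read-out: NADH loss at 340 nm, read each minute for 10 min, slope normalized to controls, duplicate % inhibition fit to Hill (0–100). Enzyme: 200 nM hGYS2/GN1; substrate 2 mM UDP-glucose plus 0.2% glycogen and 2 mM G6P; pH 7.5 Tris, 2.5% DMSO.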

Chain of hGYS1 enzyme (recombinant hGYS1/GN1 protein) (P13807 whole entry): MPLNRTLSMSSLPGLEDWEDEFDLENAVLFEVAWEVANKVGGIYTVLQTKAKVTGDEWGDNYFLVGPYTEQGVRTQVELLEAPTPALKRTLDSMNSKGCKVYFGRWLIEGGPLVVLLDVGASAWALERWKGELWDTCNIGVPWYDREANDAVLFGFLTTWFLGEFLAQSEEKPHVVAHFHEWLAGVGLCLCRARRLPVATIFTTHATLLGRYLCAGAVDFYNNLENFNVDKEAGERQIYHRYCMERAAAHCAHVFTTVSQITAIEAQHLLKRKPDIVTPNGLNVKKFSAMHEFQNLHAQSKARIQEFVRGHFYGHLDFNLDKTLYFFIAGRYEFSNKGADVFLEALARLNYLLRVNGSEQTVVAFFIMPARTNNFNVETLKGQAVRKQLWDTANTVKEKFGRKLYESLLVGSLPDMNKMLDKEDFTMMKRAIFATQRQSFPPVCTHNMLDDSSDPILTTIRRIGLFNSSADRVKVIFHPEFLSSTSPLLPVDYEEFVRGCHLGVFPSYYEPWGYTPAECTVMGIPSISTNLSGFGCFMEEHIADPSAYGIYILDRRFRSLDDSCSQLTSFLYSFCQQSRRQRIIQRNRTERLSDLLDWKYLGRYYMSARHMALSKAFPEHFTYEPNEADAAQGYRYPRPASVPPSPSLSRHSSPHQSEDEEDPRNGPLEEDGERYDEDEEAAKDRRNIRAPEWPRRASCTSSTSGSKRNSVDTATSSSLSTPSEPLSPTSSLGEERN
Chain of hGYS1 enzyme (recombinant hGYS1/GN1 protein) (P46976 whole entry partner): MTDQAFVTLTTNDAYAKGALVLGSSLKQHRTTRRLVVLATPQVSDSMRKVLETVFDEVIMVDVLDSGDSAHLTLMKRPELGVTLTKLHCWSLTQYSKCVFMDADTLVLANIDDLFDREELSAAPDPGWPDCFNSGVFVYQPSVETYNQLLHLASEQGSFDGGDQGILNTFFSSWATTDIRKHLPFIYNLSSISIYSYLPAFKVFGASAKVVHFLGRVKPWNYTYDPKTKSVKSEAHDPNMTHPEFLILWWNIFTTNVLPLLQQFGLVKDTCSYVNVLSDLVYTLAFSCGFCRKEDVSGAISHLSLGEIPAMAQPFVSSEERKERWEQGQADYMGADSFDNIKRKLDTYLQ
Chain of hGYS2 enzyme (recombinant hGYS2/GN1 protein) (P54840 whole entry): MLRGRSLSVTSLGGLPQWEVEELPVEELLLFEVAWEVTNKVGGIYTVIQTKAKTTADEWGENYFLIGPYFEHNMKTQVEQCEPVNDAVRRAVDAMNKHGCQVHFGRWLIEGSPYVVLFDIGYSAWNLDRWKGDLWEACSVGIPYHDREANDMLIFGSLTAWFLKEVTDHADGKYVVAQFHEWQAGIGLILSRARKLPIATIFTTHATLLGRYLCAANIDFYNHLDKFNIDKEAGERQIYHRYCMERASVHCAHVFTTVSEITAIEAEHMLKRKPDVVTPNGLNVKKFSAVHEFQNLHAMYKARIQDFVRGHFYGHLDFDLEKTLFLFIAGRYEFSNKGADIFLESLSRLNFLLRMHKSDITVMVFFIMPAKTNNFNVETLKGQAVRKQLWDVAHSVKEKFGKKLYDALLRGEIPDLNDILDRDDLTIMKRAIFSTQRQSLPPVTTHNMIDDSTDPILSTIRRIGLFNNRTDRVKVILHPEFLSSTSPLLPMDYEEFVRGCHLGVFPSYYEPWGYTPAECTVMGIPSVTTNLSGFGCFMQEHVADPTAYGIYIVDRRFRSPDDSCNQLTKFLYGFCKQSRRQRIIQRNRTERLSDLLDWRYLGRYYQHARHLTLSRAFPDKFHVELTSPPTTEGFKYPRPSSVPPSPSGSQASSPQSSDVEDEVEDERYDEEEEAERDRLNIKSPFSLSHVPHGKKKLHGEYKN
Chain of hGYS2 enzyme (recombinant hGYS2/GN1 protein) (P46976 whole entry partner): as the sequence (P46976 whole entry partner) above

Take `CC(=O)N1CC(C)(CC(=O)N2C[C@H](F)C[C@H]2C(=O)N[C@@H](c2ccccc2)c2ccc(C(C)C)cc2)C1` [Compound 154, (2S,4R)-1-[2-(1-acetyl-3-methylazetidin-3-yl)acetyl]-4-fluoro-N-[(S)-phenyl[4-(propan-2-yl)phenyl]methyl]pyrrolidine-2-carboxamide]: the IC50 in experiment [1] was 285 nM; in experiment [2] it was above 100000 nM.
Take `CC(=O)N1CCC[C@@H]1CC(=O)N1C[C@H](F)C[C@H]1C(=O)N[C@@H](c1ccccc1)c1ccc(C(C)C)cc1` [Compound 155, (2S,4R)-1-{2-[(2R)-1-acetylpyrrolidin-2-yl]acetyl}-4-fluoro-N-[(S)-phenyl[4-(propan-2-yl)phenyl]methyl]pyrrolidine-2-carboxamide]: the results for the IC50 in experiment [1] and in experiment [2] were 206 nM and above 100000 nM, respectively.
Turning to `CC(=O)N1CCCO[C@@H](C(=O)N2C[C@H](F)C[C@H]2C(=O)N[C@@H](c2ccccc2)c2ccc(C(C)C)cc2)C1` [Compound 158, (2S,4R)-1-[(2R)-4-acetyl-1,4-oxazepane-2-carbonyl]-4-fluoro-N-[(S)-phenyl[4-(propan-2-yl)phenyl]methyl]pyrrolidine-2-carboxamide], the IC50 in experiment [1] is 70 nM; in experiment [2], above 100000 nM.
For the compound `CC(=O)N1CCN(CC(=O)N2C[C@H](F)C[C@H]2C(=O)N[C@@H](c2ccccc2)c2ccc(C(C)C)cc2)C(=O)C1` [Compound 160, (2S,4R)-1-[2-(4-acetyl-2-oxopiperazin-1-yl)acetyl]-4-fluoro-N-[(S)-phenyl[4-(propan-2-yl)phenyl]methyl]pyrrolidine-2-carboxamide], the IC50 is 69 nM in experiment [1] and above 100000 nM in experiment [2].
Consider `CC(=O)N1C[C@H]2C[C@H](C(=O)N3C[C@H](F)C[C@H]3C(=O)N[C@@H](c3ccccc3)c3ccc(C(C)C)cc3)O[C@H]2C1` [Compound 162, (2S,4R)-1-[(2R,3aR,6aR)-5-acetyl-hexahydro-2H-furo[2,3-c]pyrrole-2-carbonyl]-4-fluoro-N-[(S)-phenyl[4-(propan-2-yl)phenyl]methyl]pyrrolidine-2-carboxamide], for which the results for the IC50 in experiment [1] and in experiment [2] were 136 nM and above 100000 nM, respectively.
On the same counts, the results for `CC(=O)N1CC2(CCC(C(=O)N3C[C@H](F)C[C@H]3C(=O)N[C@@H](c3ccccc3)c3ccc(C(C)C)cc3)O2)C1` (stereo partly drawn) [Compound 163, (2S,4R)-1-{2-acetyl-5-oxa-2-azaspiro[3.4]octane-6-carbonyl}-4-fluoro-N-[(S)-phenyl[4-(propan-2-yl)phenyl]methyl]pyrrolidine-2-carboxamide] are 135 nM and above 100000 nM.
As to `CC(=O)N1CCCC(C(=O)N2C[C@H](F)C[C@H]2C(=O)N[C@@H](c2ccccc2)c2ccc(C(C)C)cc2)CC1` (stereo partly drawn) [Compound 169, (2S,4R)-1-(1-acetylazepane-4-carbonyl)-4-fluoro-N-[(S)-phenyl[4-(propan-2-yl)phenyl]methyl]pyrrolidine-2-carboxamide], the IC50 is 91 nM in experiment [1] and above 100000 nM in experiment [2].
As for `CC(=O)N1CCC[C@@H](CC(=O)N2C[C@H](F)C[C@H]2C(=O)N[C@@H](c2ccccc2)c2ccc(C(C)C)cc2)C1` [Compound 171, (2S,4R)-1-{2-[(3S)-1-acetylpiperidin-3-yl]acetyl}-4-fluoro-N-[(S)-phenyl[4-(propan-2-yl)phenyl]methyl]pyrrolidine-2-carboxamide], the IC50 in experiment [1] was 97 nM; in experiment [2], above 100000 nM.
As to `CC(=O)N1CCCC1CCC(=O)N1C[C@H](F)C[C@H]1C(=O)N[C@@H](c1ccccc1)c1ccc(C(C)C)cc1` (stereo partly drawn) [Compound 172, (2S,4R)-1-[3-(1-acetylpyrrolidin-2-yl)propanoyl]-4-fluoro-N-[(S)-phenyl[4-(propan-2-yl)phenyl]methyl]pyrrolidine-2-carboxamide], the IC50 in experiment [1] was 255 nM; in experiment [2], above 100000 nM.
As for `CC(=O)N1CCC2(CC1)CC2C(=O)N1C[C@H](F)C[C@H]1C(=O)N[C@@H](c1ccccc1)c1ccc(C(C)C)cc1` (stereo partly drawn) [Compound 174, (2S,4R)-1-{6-acetyl-6-azaspiro[2.5]octane-1-carbonyl}-4-fluoro-N-[(S)-phenyl[4-(propan-2-yl)phenyl]methyl]pyrrolidine-2-carboxamide], the values for the IC50 in experiment [1] and in experiment [2] were 179 nM and above 100000 nM, respectively.
On the same counts, the results for `CC(=O)N1CCC(C(C)C(=O)N2C[C@H](F)C[C@H]2C(=O)N[C@@H](c2ccccc2)c2ccc(C(C)C)cc2)CC1` (stereo partly drawn) [Compound 180, (2S,4R)-1-[2-(1-acetylpiperidin-4-yl)propanoyl]-4-fluoro-N-[(S)-phenyl[4-(propan-2-yl)phenyl]methyl]pyrrolidine-2-carboxamide] are 235 nM and above 100000 nM.
For `CC(C)c1ccc([C@@H](NC(=O)[C@@H]2C[C@@H](F)CN2C(=O)C(O)C(C)C)c2ccccc2)cc1` (stereo partly drawn) [Compound 185, (2S,4R)-4-fluoro-1-(2-hydroxy-3-methylbutanoyl)-N-[(S)-phenyl[4-(propan-2-yl)phenyl]methyl]pyrrolidine-2-carboxamide], the IC50 was 26 nM in experiment [1] and above 100000 nM in experiment [2].
Take `CC(C)c1ccc([C@@H](NC(=O)[C@@H]2C[C@@H](F)CN2C(=O)CNC(=O)C(F)(F)F)c2ccccc2)cc1` [Compound 187, (2S,4R)-4-fluoro-N-[(S)-phenyl[4-(propan-2-yl)phenyl]methyl]-1-[2-(2,2,2-trifluoroacetamido)acetyl] pyrrolidine-2-carboxamide]: the IC50 in experiment [1] is 73 nM; in experiment [2], above 100000 nM.
On the same counts, the results for `CC(C)c1ccc([C@@H](NC(=O)[C@@H]2C[C@@H](F)CN2C(=O)CC#N)c2ccccc2)cc1` [Compound 188, (2S,4R)-1-(2-cyanoacetyl)-4-fluoro-N-[(S)-phenyl[4-(propan-2-yl)phenyl]methyl]pyrrolidine-2-carboxamide] are 237 nM and above 100000 nM.
On the same counts, the results for `CC(=O)N(CC(N)=O)CC(=O)N1C[C@H](F)C[C@H]1C(=O)N[C@@H](c1ccccc1)c1ccc(C(C)C)cc1` [Compound 189, (2S,4R)-1-{2-[N-(carbamoylmethyl)acetamido]acetyl}-4-fluoro-N-[(S)-phenyl[4-(propan-2-yl)phenyl]methyl]pyrrolidine-2-carboxamide] are 95 nM and above 100000 nM.
On the same counts, the results for `CC(=O)NCCC(=O)N1C[C@H](F)C[C@H]1C(=O)N[C@@H](c1ccccc1)c1ccc(C(C)C)cc1` [Compound 190, (2S,4R)-1-(3-acetamidopropanoyl)-4-fluoro-N-[(S)-phenyl[4-(propan-2-yl)phenyl]methyl]pyrrolidine-2-carboxamide] are 220 nM and above 100000 nM.
Turning to `CC(=O)NCCCC(=O)N1C[C@H](F)C[C@H]1C(=O)N[C@@H](c1ccccc1)c1ccc(C(C)C)cc1` [Compound 191, (2S,4R)-1-(4-acetamidobutanoyl)-4-fluoro-N-[(S)-phenyl[4-(propan-2-yl)phenyl]methyl]pyrrolidine-2-carboxamide], the IC50 in experiment [1] was 131 nM; in experiment [2], above 100000 nM.
On the same counts, the results for `CC(C)c1ccc([C@@H](NC(=O)[C@@H]2C[C@@H](F)CN2C(=O)CN2CCCC2=O)c2ccccc2)cc1` [Compound 192, (2S,4R)-4-fluoro-1-[2-(2-oxopyrrolidin-1-yl)acetyl]-N-[(S)-phenyl[4-(propan-2-yl)phenyl]methyl]pyrrolidine-2-carboxamide] are 76 nM and above 100000 nM.
For the compound `CC(C)c1ccc([C@@H](NC(=O)[C@@H]2C[C@@H](F)CN2C(=O)CNC2(C)COC2)c2ccccc2)cc1` [Compound 193, (2S,4R)-4-fluoro-1-{2-[(3-methyloxetan-3-yl)amino]acetyl}-N-[(S)-phenyl[4-(propan-2-yl)phenyl]methyl]pyrrolidine-2-carboxamide], the IC50 in experiment [1] was 303 nM; in experiment [2], above 100000 nM.
On the same counts, the results for `CC(C)c1ccc([C@@H](NC(=O)[C@@H]2C[C@@H](F)CN2C(=O)Cc2nnc[nH]2)c2ccccc2)cc1` [Compound 194, (2S,4R)-4-fluoro-N-[(S)-phenyl[4-(propan-2-yl)phenyl]methyl]-1-[2-(4H-1,2,4-triazol-3-yl)acetyl]pyrrolidine-2-carboxamide] are 27 nM and above 100000 nM.
On the same counts, the results for `CC(C)c1ccc([C@@H](NC(=O)[C@@H]2C[C@@H](F)CN2C(=O)Cc2cnco2)c2ccccc2)cc1` [Compound 195, (2S,4R)-4-fluoro-1-[2-(1,3-oxazol-5-yl)acetyl]-N-[(S)-phenyl[4-(propan-2-yl)phenyl]methyl]pyrrolidine-2-carboxamide] are 44 nM and above 100000 nM.
On the same counts, the results for `CC(=O)N[C@@H](CCC(=O)O)C(=O)N1C[C@H](F)C[C@H]1C(=O)N[C@@H](c1ccccc1)c1ccc(C(C)C)cc1` [Compound 196, (4S)-4-acetamido-5-[(2S,4R)-4-fluoro-2-{[(S)-phenyl[4-(propan-2-yl)phenyl]methyl]carbamoyl}pyrrolidin-1-yl]-5-oxopentanoic acid] are 143 nM and above 100000 nM.
Consider `CC(=O)N[C@H](CCC(=O)O)C(=O)N1C[C@H](F)C[C@H]1C(=O)N[C@@H](c1ccccc1)c1ccc(C(C)C)cc1` [Compound 197, (4R)-4-acetamido-5-[(2S,4R)-4-fluoro-2-{[(S)-phenyl[4-(propan-2-yl)phenyl]methyl]carbamoyl}pyrrolidin-1-yl]-5-oxopentanoic acid], for which the IC50 was 128 nM in experiment [1] and above 100000 nM in experiment [2].
Regarding `CC(C)c1ccc([C@@H](NC(=O)[C@@H]2CCCN2C(=O)C2CC2)c2ccccc2)cc1` [Compound 203, (2S)-1-cyclopropanecarbonyl-N-[(S)-phenyl[4-(propan-2-yl)phenyl]methyl]pyrrolidine-2-carboxamide], the values for the IC50 in experiment [1] and in experiment [2] were 862 nM and above 100000 nM, respectively.

The record behind these values is patent US11814367B2, “Inhibitors of glycogen synthase 1 (GYS1) and methods of use thereof” (Maze Therapeutics, Inc., priority 2021, dated 2023).
